For 16 compounds, EC50 results are on record in US10344019B2 (priority 2010, dated 2019).

Format in all cases: cell-based
Test [1] concerns HCV 4a Rluc cells (NS5A chimeric genotype 1b Con1 replicon with genotype 4a NS5A gene). Nature of the test: microbe, parasite or virus in culture. Particulars: Hepatitis C virus, read-out: 4a. The essentials: (§1)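 Replicon cells stably carrying the listed RLuc-encoding dicistronic replicons were seeded and treated with DMSO serial dilutions of compound (10 mM stocks) diluted into culture medium. After 72 h, cells were lysed and Renilla luciferase activity measured. EC50 was derived by non-linear regression.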

The subject of test [2] is HCV 2a JFH-1 Rluc cells (dicistronic genotype 2a JFH-1 replicon, RLuc reporter). Nature of the test: microbe, parasite or virus in culture. Particulars: Hepatitis C virus, read-out: 2a JFH. The essentials: (§2)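 Replicons used: genotype 1b Con1, 1a H77, 2a JFH-1, and a 2a JFH-1 chimera with J6-strain NS5A (M31 present), all dicistronic.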
Test [3] deals with HCV 1b RLuc cells (dicistronic genotype 1b Con1 replicon, RLuc reporter). Nature of the test: microbe, parasite or virus in culture. Particulars: Hepatitis C virus, read-out: 1b (nM). The essentials: as §2
Test [4] deals with HCV 2b Rluc cells (NS5A chimeric genotype 2a JFH-1 replicon with genotype 2b MD2b-1 NS5A gene, M31 present). Nature of the test: microbe, parasite or virus in culture. Particulars: Hepatitis C virus, read-out: 2b. The essentials:
as §1

The subject of test [5] is HCV 3a RLuc cells (NS5A chimeric genotype 1b Con1 replicon with consensus genotype 3a NS5A gene). Nature of the test: microbe, parasite or virus in culture. The essentials:
as §1

For test [6], the system named is HCV 1a RLuc cells (dicistronic genotype 1a H77 replicon, RLuc reporter). Nature of the test: microbe, parasite or virus in culture. Particulars: Hepatitis C virus, read-out: 1a. The essentials: as §2
For test [7], the system named is HCV 2a Rluc cells (NS5A chimeric genotype 2a JFH-1 replicon with genotype 2a J6 strain NS5A gene, M31 present). Nature of the test: HCV replicon reporter assay, genotype 2a J6 (M31 present). Particulars: Hepatitis C virus, read-out: 2a J6. The essentials: as §2
[8] abbreviates: Hepatitis C virus, read-out: 3a, genotype 3a replicon.
[9] abbreviates: genotype 2a JFH-1 replicon, RLuc reporter.
Where [10] appears, read: Hepatitis C virus, read-out: 3a, genotype 3a NS5A chimeric 1b Con1 replicon.
[11] abbreviates: genotype 1a H77 replicon, RLuc reporter.
[12] abbreviates: 72 h, Table 1, genotype 2a JFH-1 replicon, 72 hours.
The mark [13] stands for this setting: Hepatitis C virus, read-out: 3a, Table 1, genotype 3a NS5A chimeric replicon.
Setting [14] is: 72 h, Table 1, genotype 1a H77 replicon, 72 hours.
[15] abbreviates: genotype 2a JFH-1 RLuc replicon.
[16] abbreviates: Hepatitis C virus, read-out: 3a, genotype 3a NS5A chimeric replicon.

SMILES strings stand for the structures. Read-outs that look alike come from different tables or passages of the source.

On to `COC[C@H]1C[C@@H](c2ncc(-c3ccc(-c4ccc5c(ccc6nc([C@@H]7C[C@H](COC)CN7C(=O)[C@@H](NC(=O)OC)C(C)C)[nH]c65)c4)cc3)[nH]2)N(C(=O)[C@@H](NC(=O)OC)C(C)C)C1` [Example 440], for which the EC50 in test [1] is 0.001 to 0.99 nM; in test [2] (genotype 2a JFH-1 replicon), 0.001 to 0.999 nM; in test [3] it was 0.048 nM; in test [4], 1 to 44 nM; in test [5] (setting [8]), 1 to 4.99 nM; in test [6] (genotype 1a replicon) it was 0.001 to 0.999 nM. Moreover, the EC50 in test [7] lay within 0.001 to 0.999 nM.
For the compound `COC(=O)N[C@H](C(=O)N1CCC[C@H]1c1ncc(-c2ccc3cc(-c4ccc5c(c4)CCc4nc([C@@H]6CCCN6C(=O)[C@@H](NC(=O)OC)C(C)C)[nH]c4-5)ccc3c2)[nH]1)C(C)C` [Example 114], the EC50 was 0.001 to 0.99 nM in test [1]; 1 to 44 nM in test [2] (setting [9]); 0.011 nM in test [3]; above 44 nM in test [4]; 1 to 4.99 nM in test [5] (setting [10]); 0.001 to 0.999 nM in test [6] (setting [11]). Besides, the EC50 in test [7] was above 44 nM.
In the case of `COC(=O)N[C@H](C(=O)N1CCC[C@H]1c1ncc(-c2ccc3cc(-c4ccc(-c5cnc([C@@H]6CCCN6C(=O)[C@H](NC(=O)OC)c6ccccc6)[nH]5)cc4)ccc3c2)[nH]1)[C@@H](C)OC(C)F` (stereo partly shown) [Example 128], the EC50 in test [1] is 0.001 to 0.99 nM; in test [2] (setting [9]), 0.001 to 0.999 nM; in test [3], 0.005 nM; in test [4], above 44 nM; in test [5] (setting [10]), 0.001 to 0.99 nM; in test [6] (setting [11]), 0.001 to 0.999 nM. For the same compound, the EC50 in test [7] was above 44 nM.
Turning to `COC(=O)N[C@H](C(=O)N1CCC[C@H]1c1ncc(-c2ccc3cc(-c4ccc5c(c4)CCc4nc([C@@H]6CCCN6C(=O)[C@@H](NC(=O)OC)C6CCOCC6)[nH]c4-5)ccc3c2)[nH]1)C(C)C` [Example 198], the EC50 is 0.001 to 0.99 nM in test [1]; 0.001 to 0.999 nM in test [2] (setting [9]); 0.018 nM in test [3]; above 44 nM in test [4]; 1 to 4.99 nM in test [5] (read-out: 3a, genotype 3a NS5A chimeric 1b Con1 replicon); 0.001 to 0.999 nM in test [6] (setting [11]). Moreover, the EC50 in test [7] is above 44 nM.
Turning to `COC(=O)N[C@H](C(=O)N1CC2(C[C@H]1c1nc3ccc4cc(-c5ccc6c(c5)CCc5nc(C7CCCN7C(=O)[C@H](NC(=O)OC)c7ccccc7)[nH]c5-6)ccc4c3[nH]1)OCCO2)C(C)C` (stereo partly shown) [Example 365], the EC50 in test [1] is 0.001 to 0.99 nM; in test [2] (genotype 2a JFH-1 replicon), 0.001 to 0.999 nM; in test [3] it was 0.11 nM; in test [4], 0.001 to 0.999 nM; in test [5] (setting [8]), 0.001 to 0.99 nM; in test [6] (genotype 1a replicon), 0.001 to 0.999 nM. Further, the EC50 in test [7] lay in the range of 0.001 to 0.999 nM.
`O=C(CC1CC1)N[C@@H](C(=O)N1CCC[C@H]1c1ncc(-c2cc3c4c(c2)OCc2cc(-c5cnc([C@@H]6CCCN6C(=O)[C@H](NC(=O)CC6CC6)c6ccccc6)[nH]5)cc(c2-4)OC3)[nH]1)c1ccccc1` [Example 465]: the EC50 in test [1] is 0.001 to 0.99 nM; in test [2] (genotype 2a JFH-1 replicon), 0.001 to 0.999 nM; in test [3] it was 0.176 nM; in test [4], 0.001 to 0.999 nM; in test [5] (setting [8]), 0.001 to 0.99 nM; in test [6] (genotype 1a replicon), 0.001 to 0.999 nM. In addition, in test [7], the EC50 fell in the range of 0.001 to 0.999 nM.
In the case of `COC(=O)N[C@H](C(=O)N1CCC[C@H]1c1ncc(-c2ccc3c4ccc(-c5cnc([C@@H]6CCCN6C(=O)[C@@H](NC(=O)OC)C(C)C)[nH]5)cc4c4ccccc4c3c2)[nH]1)C(C)C` [Example 22], the EC50 is 0.001 to 0.99 nM in test [1]; 0.001 to 0.999 nM in test [2] (setting [12]); 0.005 nM in test [3] (72 h); above 44 nM in test [4]; 0.001 to 0.99 nM in test [5] (setting [13]); 0.001 to 0.999 nM in test [6] (setting [14]). In test [7], the EC50 was above 44 nM.
With `COC[C@H]1C[C@@H](c2nc3ccc4cc(-c5ccc(-c6cnc([C@@H]7CCCN7C(=O)[C@H](NC(=O)OC)c7ccccc7)[nH]6)cc5OCC(F)(F)F)ccc4c3[nH]2)N(C(=O)[C@@H](NC(=O)OC)C(C)C)C1` [Example 474], the EC50 in test [1] was 0.001 to 0.99 nM; in test [2] (genotype 2a JFH-1 replicon), 0.001 to 0.999 nM; in test [3], 0.025 nM; in test [4] it was 1 to 44 nM; in test [5] (setting [8]), 0.001 to 0.99 nM; in test [6] (genotype 1a replicon) it was 0.001 to 0.999 nM. Besides, the EC50 in test [7] lay within 1 to 44 nM.
For `COC(=O)N[C@H](C(=O)N1CCC[C@H]1c1ncc(-c2ccc3c4c(ccc3c2)-c2ccc(-c3cnc([C@@H]5CCCN5C(=O)[C@H](NC(=O)OC)c5ccccc5)[nH]3)cc2CO4)[nH]1)C(C)C` [Example 1], the EC50 in test [1] was 0.001 to 0.99 nM; in test [2] (setting [12]), 0.001 to 0.999 nM; in test [3] (72 h), 0.008 nM; in test [4], above 44 nM; in test [5] (setting [13]) it was 0.001 to 0.99 nM; in test [6] (setting [14]) it was 0.001 to 0.999 nM. The EC50 in test [7] is above 44 nM.
For `COCCC(=O)N[C@@H](C(=O)N1CCC[C@H]1c1ncc(-c2cc3c4c(c2)OCc2cc(-c5cnc([C@@H]6CCCN6C(=O)[C@H](NC(=O)CCOC)c6ccccc6)[nH]5)cc(c2-4)OC3)[nH]1)c1ccccc1` [Example 480], the EC50 in test [1] was 0.001 to 0.99 nM; in test [2] (genotype 2a JFH-1 replicon), 0.001 to 0.999 nM; in test [3], 0.684 nM; in test [4] it was 0.001 to 0.999 nM; in test [5] (setting [8]) it was 0.001 to 0.99 nM; in test [6] (genotype 1a replicon), 0.001 to 0.999 nM. Moreover, the EC50 in test [7] lay within 1 to 44 nM.
With `O=C(N[C@@H](C(=O)N1CCC[C@H]1c1ncc(-c2cc3c4c(c2)OCc2cc(-c5cnc([C@@H]6CCCN6C(=O)[C@H](NC(=O)c6cncnc6)c6ccccc6)[nH]5)cc(c2-4)OC3)[nH]1)c1ccccc1)c1cncnc1` [Example 492], the EC50 is 0.001 to 0.99 nM in test [1]; 0.001 to 0.999 nM in test [2] (setting [15]); 0.898 nM in test [3]; 1 to 44 nM in test [4]; 0.001 to 0.99 nM in test [5] (setting [16]); 1 to 44 nM in test [6] (genotype 1a H77 RLuc replicon). Also, the EC50 in test [7] is above 44 nM.
On to `COC(=O)N[C@@H](C(=O)N1C[C@@H](OC)C[C@H]1c1ncc(-c2ccc(-c3ccc4cc(-c5cnc([C@@H]6CCCN6C(=O)[C@H](C(C)C)N(C)C(=O)OC)[nH]5)ccc4c3)cc2)[nH]1)c1ccccc1` [Example 122], for which the EC50 in test [1] was 0.001 to 0.99 nM; in test [2] (setting [9]) it was 0.001 to 0.999 nM; in test [3] it was 0.009 nM; in test [4], above 44 nM; in test [5] (setting [10]), 0.001 to 0.99 nM; in test [6] (setting [11]), 0.001 to 0.999 nM. For the same compound, the EC50 in test [7] was above 44 nM.
As for `COC[C@H]1CC[C@@H](c2ncc(-c3cc4c5c(c3)OCc3cc(-c6cnc([C@@H]7CC[C@H](COC)N7C(=O)[C@@H](NC(=O)OC)C(C)C)[nH]6)cc(c3-5)OC4)[nH]2)N1C(=O)[C@@H](NC(=O)OC)C(C)C` [Example 578], the EC50 was 0.001 to 0.99 nM in test [1]; 0.001 to 0.999 nM in test [2] (setting [15]); 0.022 nM in test [3]; above 44 nM in test [4]; 0.001 to 0.99 nM in test [5] (setting [16]); 0.001 to 0.999 nM in test [6] (genotype 1a H77 RLuc replicon). The EC50 in test [7] is above 44 nM.
In the case of `COC(=O)N[C@H](C(=O)N1CCC[C@H]1c1ncc(-c2ccc3cc(-c4ccc(-c5cnc([C@@H]6C[C@@H](C)CN6C(=O)[C@H](NC(=O)OC)c6ccccc6)[nH]5)cc4)ccc3c2)[nH]1)C(C)C` [Example 159], the EC50 in test [1] was 0.001 to 0.99 nM; in test [2] (setting [9]) it was 0.001 to 0.999 nM; in test [3], 0.006 nM; in test [4] it was 1 to 44 nM; in test [5] (setting [10]), 0.001 to 0.99 nM; in test [6] (setting [11]), 0.001 to 0.999 nM. The EC50 in test [7] is above 44 nM.
As to `COC(=O)NC(C(=O)N1CCC[C@H]1c1ncc(-c2cc3c4c(c2)OCc2cc(-c5[nH]c([C@@H]6CCCN6C(=O)C(NC(=O)OC)c6cccnc6)nc5Cl)cc(c2-4)OC3)[nH]1)c1cccnc1` (stereo partly shown) [Example 420], the EC50 is 1 to 4.99 nM in test [1]; 0.001 to 0.999 nM in test [2] (genotype 2a JFH-1 replicon); 4.66 nM in test [3]; 1 to 44 nM in test [4]; 0.001 to 0.99 nM in test [5] (setting [8]); 1 to 44 nM in test [6] (genotype 1a replicon). Further, the EC50 in test [7] lay within 1 to 44 nM.
`CC(C)COC(=O)N[C@@H](C(=O)N1CCC[C@H]1c1ncc(-c2cc3c4c(c2)OCc2cc(-c5cnc([C@@H]6CCCN6C(=O)[C@H](NC(=O)OCC(C)C)c6ccccc6)[nH]5)cc(c2-4)OC3)[nH]1)c1ccccc1` [Example 487]: the EC50 in test [1] was 0.001 to 0.99 nM; in test [2] (genotype 2a JFH-1 replicon) it was 0.001 to 0.999 nM; in test [3], 0.027 nM; in test [4], 1 to 44 nM; in test [5] (setting [8]), 0.001 to 0.99 nM; in test [6] (genotype 1a replicon), 0.001 to 0.999 nM. Moreover, the EC50 in test [7] is above 44 nM.
